This passage reports IC50 results from patent US8906852B2 (MethylGene Inc., priority 2010, dated 2014).

Some results are limits rather than exact numbers.

In this assay the target is T1, VEGFR/KDR (Homo sapiens, UniProt P35968).
T1 construct: made in house; host or cells: Sf9 cells (Spodoptera frugiperda), baculovirus
T1 sequence (P35968 806-1356): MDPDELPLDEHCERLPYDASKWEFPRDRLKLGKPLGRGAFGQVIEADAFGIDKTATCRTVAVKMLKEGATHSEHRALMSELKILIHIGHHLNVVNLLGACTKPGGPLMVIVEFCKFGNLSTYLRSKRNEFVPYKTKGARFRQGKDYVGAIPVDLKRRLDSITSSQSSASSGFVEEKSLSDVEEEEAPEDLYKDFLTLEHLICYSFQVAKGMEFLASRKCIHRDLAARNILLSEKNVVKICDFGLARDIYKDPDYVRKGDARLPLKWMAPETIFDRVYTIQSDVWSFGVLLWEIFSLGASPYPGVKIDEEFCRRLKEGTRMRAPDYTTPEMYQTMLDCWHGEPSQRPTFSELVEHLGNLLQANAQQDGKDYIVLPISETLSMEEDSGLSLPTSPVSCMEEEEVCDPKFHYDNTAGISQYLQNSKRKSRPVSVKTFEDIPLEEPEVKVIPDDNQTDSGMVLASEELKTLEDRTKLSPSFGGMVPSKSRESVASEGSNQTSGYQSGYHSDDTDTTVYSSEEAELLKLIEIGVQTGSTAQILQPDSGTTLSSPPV
Nature of the assay: VEGFR/KDR kinase inhibition, DELFIA assay. In kind it is biochemical. Particulars: ATP 0.6 uM (2x Km), enzyme 5 nM. As for the experimental part: Inhibition of VEGFR/KDR is measured in a DELFIA™ assay (Perkin Elmer). The substrate poly(Glu4, Tyr) is immobilized onto black high-binding polystyrene 96-well plates. The coated plates are washed and stored at 4° C. During the assay, the enzyme is pre-incubated with inhibitor and Mg-ATP on ice in polypropylene 96-well plates for 4 minutes, and then transferred to the coated plates. The subsequent kinase reaction takes place at 30° C. for 10-30 minutes. ATP concentrations in the assay are 0.6 uM for VEGFR/KDR (2× the Km). Enzyme concentration is 5 nM. After incubation, the kinase reactions are quenched with EDTA and the plates are washed. Phosphorylated product is detected by incubation with Europium-labeled anti-phosphotyrosine MoAb. After washing the plates, bound MoAb is detected by time-resolved fluorescence in a Gemini SpectraMax reader (Molecular Devices). Compounds are evaluated over a range of concentrations, and IC50 values (concentration of compounds giving 50% inhibition of enzymatic activity) are determined.
Take `O=C(O)CN1CCN(Cc2ccc(-c3cc4nccc(Oc5ccc(NC(=O)NC6CC6)cc5F)c4s3)nc2)CC1` [Compound 61, 2-(4-((6-(7-(4-(3-cyclopropylureido)-2-fluorophenoxy)thieno[3,2-b]pyridin-2-yl)pyridin-3-yl)methyl)piperazin-1-yl)acetic acid]: the IC50 (in general, the point on the concentration scale where inhibition reaches its midpoint) was below 50 nM.
The compound `CN(CCF)C1CCN(Cc2ccc(-c3cc4nccc(Oc5ccc(NC(=O)NC6CC6)cc5F)c4s3)nc2)CC1` [Compound 421, 1-Cyclopropyl-3-(3-fluoro-4-(2-(5-((4-((2-fluoroethyl)(methyl)amino)piperidin-1-yl)methyl)pyridin-2-yl)thieno[3,2-b]pyridin-7-yloxy)phenyl)urea] had an IC50 below 50 nM.
The compound `CC(C)[C@H](N)C(=O)N1CCN(Cc2ccc(-c3cc4nccc(Oc5ccc(NC(=O)NC6CC6)cc5F)c4s3)nc2)CC1` [Compound 76, (S)-1-(4-(2-(5-((4-(2-amino-3-methylbutanoyl)piperazin-1-yl)methyl)pyridin-2-yl)thieno[3,2-b]pyridin-7-yloxy)-3-fluorophenyl)-3-cyclopropylurea] showed an IC50 below 50 nM.
Then `CCNC(=O)N1CCN(C(=O)c2ccc(-c3cc4nccc(Oc5ccc(NC(=O)NC6CC6)cc5F)c4s3)nc2)CC1` [Compound 557], with below 50 nM; and `COCCOCC(=O)N1CCN(Cc2ccc(-c3cc4nccc(Oc5ccc(NC(=O)NC6CC6)cc5F)c4s3)nc2)CC1` [Compound 589], with below 50 nM; and `CCOC(=O)CC1CCN(Cc2ccc(-c3cc4nccc(Oc5ccc(NC(=O)NC6CC6)cc5F)c4s3)nc2)CC1` [Compound 59, ethyl 2-(1-((6-(7-(4-(3-cyclopropylureido)-2-fluorophenoxy)-thieno[3,2-b]pyridin-2-yl)pyridin-3-yl)methyl)piperidin-4-yl)acelate], with below 50 nM.
With `CC(=O)N(Cc1ccc(-c2cc3nccc(Oc4ccc(NC(=O)NC5CC5)cc4F)c3s2)nc1)C1CCNCC1` [Compound 609, N-((6-(7-(4-(3-Cyclopropylureido)-2-fluorophenoxy)thieno[3,2-b]pyridin-2-yl)pyridin-3-yl)methyl)-N-(piperidin-4-yl)acetamide] the figure was below 50 nM.
Then `O=C(Nc1ccc(Oc2ccnc3cc(-c4ccc(CN5CCC[C@H]5C(=O)O)cn4)sc23)c(F)c1)NC1CC1` [Compound 173, (S)-1-((6-(7-(4-(3-cyclopropylureido)-2-fluorophenoxy)thieno[3,2-b]pyridin-2-yl)pyridin-3-yl)methyl)pyrrolidine-2-carboxylic acid], with below 50 nM.
Consider `CC(=O)OCC(=O)N1CCN(C(=O)Cn2cc(-c3cc4nccc(Oc5ccc(NC(=O)NC6CC6)cc5F)c4s3)nn2)CC1` [Compound 390], for which the concentration for half-maximal inhibition (IC50) is below 50 nM.
Turning to `COCCOCCOCCOCCN(C)Cc1ccc(-c2cc3nccc(Oc4ccc(NC(=O)NC5CC5)cc4F)c3s2)nc1` [Compound 180, 1-cyclopropyl-3-(3-fluoro-4-(2-(5-(2-methyl-5,8,11,14-tetraoxa-2-azapentadecyl)pyridin-2-yl)thieno[3,2-b]pyridin-7-yloxy)phenyl)urea], the IC50 is below 50 nM.
`CCNC(=O)N1CCN(Cc2ccc(-c3cc4nccc(Oc5ccc(NC(=O)NC6CC6)cc5F)c4s3)nc2)CC1` [Compound 551]: the half-inhibitory concentration (IC50) was below 50 nM.
With `N[C@H]1CCN(Cc2ccc(-c3cc4nccc(Oc5ccc(NC(=O)NC6CC6)cc5F)c4s3)nc2)C1=O` [Compound 108, (S)-1-(4-(2-(5-((3-amino-2-oxopyrrolidin-1-yl)methyl)pyridin-2-yl)thieno[3,2-b]pyridin-7-yloxy)-3-fluorophenyl)-3-cyclopropylurea] the figure was below 50 nM.
On to `CN(CCO)Cc1ccc(-c2cc3nccc(Oc4ccc(NC(=O)NC5CC5)cc4F)c3s2)nc1` [Compound 50-A], for which the IC50 was below 50 nM.
With `CC(=O)N[C@@H]1CCN(C(=O)c2cc3nccc(Oc4ccc(NC(=O)NC5CC5)cc4F)c3s2)C1` [Compound 453] the figure was below 50 nM; with `O=C(O)CCCCCN1CCN(Cc2ccc(-c3cc4nccc(Oc5ccc(NC(=O)NC6CC6)cc5F)c4s3)nc2)CC1` [Compound 520, 6-(4-((6-(7-(4-(3-cyclopropylureido)-2-fluorophenoxy)thieno[3,2-b]pyridin-2-yl)pyridin-3-yl)methyl)piperazin-1-yl)hexanoic acid], below 50 nM.
With `C[C@@H]1CN(Cc2ccc(-c3cc4nccc(Oc5ccc(NC(=O)NC6CC6)cc5F)c4s3)nc2)C[C@H](C)N1C(=O)CO` [Compound 531, 1-cyclopropyl-3-(3-fluoro-4-(2-(5-(((3S,5R)-4-(2-hydroxyacetyl)-3,5-dimethylpiperazin-1-yl)methyl)pyyridin-2-yl)thieno[3,2-b]pyridin-7-yloxy)phenyl)urea] the figure was below 50 nM.
Then `O=C(Nc1ccc(Oc2ccnc3cc(-c4ccc(CNc5ccc(OCCN6CCOCC6)cc5)cn4)sc23)c(F)c1)NC1CC1` [Compound 331, 1-Cyclopropyl-3-(3-fluoro-4-(2-(5-((4-(2-morpholinoethoxy)phenylamino)methyl)pyridin-2-yl)thieno[3,2-b]pyridin-7-yloxy)phenyl)urea], with below 50 nM; and `CN(CCO)C(=O)C1CCCN(Cc2ccc(-c3cc4nccc(Oc5ccc(NC(=O)NC6CC6)cc5F)c4s3)nc2)C1` (centres unmarked) [Compound 494, 1-((6-(7-(4-(3-cyclopropylureido)-2-fluorophenoxy)thieno[3,2-b]pyridin-2-yl)pyridin-3-yl)methyl)-N-(2-hydroxyethyl)-N-methylpiperidine-3-carboxamide], with below 50 nM.
For the compound `CN1CCN(C(=O)C2CCCN(C(=O)c3cc4nccc(Oc5ccc(NC(=O)NC6CC6)cc5F)c4s3)C2)CC1` (centres unmarked) [Compound 473, 1-cyclopropyl-3-(3-fluoro-4-(2-(3-(4-methylpiperazine-1-carbonyl)piperidine-1-carbonyl)thieno[3,2-b]pyridin-7-yloxy)phenyl)urea], the IC50 is below 50 nM.
Then `O=C(Nc1ccc(Oc2ccnc3cc(-c4ccc(CN5CCNC5=O)cn4)sc23)c(F)c1)NC1CC1` [Compound 143, 1-cyclopropyl-3-(3-fluoro-4-(2-(5-((2-oxoimidazolidin-1-yl)methyl)pyridin-2-yl)thieno[3,2-b]pyridin-7-yloxy)phenyl)urea], with below 50 nM.
Take `NC(CCCCNCc1ccc(-c2cc3nccc(Oc4ccc(NC(=O)NC5CC5)c(F)c4F)c3s2)nc1)C(=O)O` (centres unmarked) [Compound 170, 2-amino-6-((6-(7-(4-(3-cyclopropylureido)-2,3-difluorophenoxy)thieno[3,2-b]pyridin-2-1)pyridin-3-yl)methylamino)hexanoic acid]: the IC50 is below 50 nM.
With `O=C(Nc1ccc(Oc2ccnc3cc(C(=O)N4CCC4)sc23)c(F)c1)NC1CC1` [Compound 446] the figure was below 50 nM; with `CC(C)NC(=O)NC1CCN(Cc2ccc(-c3cc4nccc(Oc5ccc(NC(=O)NC6CC6)cc5F)c4s3)nc2)CC1` [Compound 355], below 50 nM.
Then `O=C(Nc1ccc(Oc2ccnc3cc(-c4ccc(CCN5CCCC5=O)cn4)sc23)c(F)c1)NC1CC1` [Compound 295, 1-cyclopropyl-3-(3-fluoro-4-(2-(5-(2-(2-oxopyrrolidin-1-yl)ethyl)pyridin-2-yl)thieno[3,2-b]pyridin-7-yloxy)phenyl)urea], with below 50 nM; and `O=C(Nc1ccc(Oc2ccnc3cc(-c4ccc(CN5CC6CNCC6C5)cn4)sc23)c(F)c1)NC1CC1` (centres unmarked) [Compound 311, 1-cyclopropyl-3-(3-fluoro-4-(2-(5-((hexahydropyrrolo[3,4-c]pyrrol-2(1H)-yl)methyl)pyridin-2-yl)thieno[3,2-b]pyridin-7-yloxy)phenyl)urea], with below 50 nM.
In turn, `O=C(CO)NC1CN(Cc2ccc(-c3cc4nccc(Oc5ccc(NC(=O)NC6CC6)cc5F)c4s3)nc2)C1` [Compound 414] came in with an IC50 below 50 nM.
As to `O=C(Nc1ccc(Oc2ccnc3cc(-c4ccc(CN5CC(O)CC5=O)cn4)sc23)c(F)c1)NC1CC1` (racemic) [Compound 111, (±)-1-cyclopropyl-3-(3-fluoro-4-(2-(5-((4-hydroxy-2-oxopyrrolidin-1-yl)methyl)pyridin-2-yl)thieno[3,2-b]pyridin-7-yloxy)phenyl)urea], the IC50 is below 50 nM.
With `CCOC(=O)CN1CCN(Cc2ccc(-c3cc4nccc(Oc5ccc(NC(=O)NC6CC6)cc5F)c4s3)nc2)CC1` [Compound 60, ethyl 2-(4-((6-(7-(4-(3-cyclopropylureido)-2-fluorophenoxy)-thieno[3,2-b]pyridin-2-yl)pyridin-3-yl)methyl)piperazin-1-yl)acetate] the figure was below 50 nM.
`O=C(O)CCCCN1CCN(Cc2ccc(-c3cc4nccc(Oc5ccc(NC(=O)NC6CC6)cc5F)c4s3)nc2)CC1` [Compound 518, 5-(4-((6-(7-(4-(3-cyclopropylureido)-2-fluorophenoxy)thieno[3,2-b]pyridin-2-yl)pyridin-3-yl)methyl)piperazin-1-yl)pentanoic acid] came in with an IC50 below 50 nM.
Then `O=C(Nc1ccc(Oc2ccnc3cc(-c4ccc(CN5CCOCC5=O)cn4)sc23)c(F)c1)NC1CC1` [Compound 123, 1-cyclopropyl-3-(3-fluoro-4-(2-(5-((3-oxomorpholino)methyl)pyridin-2-yl)thieno[3,2-b]pyridin-7-yloxy)phenyl)urea], with below 50 nM; and `CC(C)(C)OC(=O)NC1CCN(C(=O)Cn2cc(-c3cc4nccc(Oc5ccc(NC(=O)NC6CC6)cc5F)c4s3)nn2)C1` (centres unmarked) [Compound 382], with below 50 nM; and `C[C@@H]1CN(Cc2ccc(-c3cc4nccc(Oc5ccc(NC(=O)NC6CC6)cc5F)c4s3)nc2)C[C@H](C)N1CCO` [Compound 583], with below 50 nM.
